Experiments:
S. aureus DSM 20231 [1] = assay: Bliss interaction score (quartile over a dose matrix) (fitness difference); higher = more antagonism (negative = synergy)
Procedure, shortened: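 Fitness was OD595 at entry into stationary phase divided by the plate's robust no-drug mean and capped at 1; single-drug fitness was inferred from combination data. The Bliss score is observed minus expected (product) fitness, summarised by quartiles over technical, biological and donor/recipient replicates.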

B. subtilis 168 = assay: fitness (endpoint OD595 vs no drug) (fraction); higher = more growth
Procedure, shortened: (§1)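 In 384-well plates at 37 °C, cultures began at OD595 0.01 in 30 µl, with 55 µl used for S. pneumoniae. OD595 readings every 30 min for 14 h were corrected by the first reading. Fitness divides the stationary-phase transition optical density by the robust mean of no-drug control wells. The result is capped at 1.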

S. aureus DSM 20231 [2] = assay: as above
Procedure, shortened: as §1

S. aureus Newman = assay: as above
Procedure, shortened: as §1

S. pneumoniae D39V = assay: as above
Procedure, shortened: as §1
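Wherever Bliss interaction score (quartile over a dose matrix) is given: first quartile when negative (synergy) and third quartile when positive (antagonism).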

CCN(CC)CCOc1ccc(C(=C(Cl)c2ccccc2)c2ccccc2)cc1 [Clomiphene] + CN[C@@H]1[C@H](O[C@H]2[C@H](O[C@H]3[C@H](O)[C@@H](O)[C@H](N=C(N)N)[C@@H](O)[C@@H]3N=C(N)N)O[C@@H](C)[C@]2(O)C=O)O[C@@H](CO)[C@H](O)[C@H]1O [Streptomycin]
Conditions | Bliss interaction score
S. aureus DSM 20231 [1] | 0.238

CC(=O)O[C@H]1C[C@@]2(C)[C@@H](C[C@@H](O)[C@H]3[C@@]4(C)CC[C@@H](O)[C@@H](C)[C@@H]4CC[C@@]32C)/C1=C(\CCC=C(C)C)C(=O)O [Fusidic acid] + C[C@H]1C[C@@H]2[C@H]([C@@H](O)C[C@@]3(C)[C@H]2CC[C@]3(O)C(=O)CO)[C@@]2(C)C=CC(=O)C=C12 [Methylprednisolone]
Conditions | Bliss interaction score
S. aureus DSM 20231 [1] | -0.127

C/C(=C\C(=O)OCCCCCCCCC(=O)O)C[C@@H]1OC[C@H](C[C@@H]2O[C@H]2[C@@H](C)[C@H](C)O)[C@@H](O)[C@H]1O [Pseudomonic acid] + CCCSc1nc(N[C@@H]2C[C@H]2c2ccc(F)c(F)c2)c2nnn([C@@H]3C[C@H](OCCO)[C@@H](O)[C@H]3O)c2n1 [Ticagrelor]
Conditions | Bliss interaction score
S. aureus DSM 20231 [1] | 0.241

CC(=O)OC[C@H]1O[C@@H]([S-])[C@H](OC(C)=O)[C@@H](OC(C)=O)[C@@H]1OC(C)=O.CCP(CC)CC.[Au+] [Auranofin] + C[C@H]1C[C@@H]2[C@H]([C@@H](O)C[C@@]3(C)[C@H]2CC[C@]3(O)C(=O)CO)[C@@]2(C)C=CC(=O)C=C12 [Methylprednisolone]
Conditions | Bliss interaction score
S. aureus DSM 20231 [1] | 0.162

CCc1oc2ccccc2c1C(=O)c1cc(Br)c(O)c(Br)c1 [Benzbromarone] + CC(C1CCC(C(O1)OC2C(CC(C(C2O)OC3C(C(C(CO3)(C)O)NC)O)N)N)N)NC [Gentamicin]
Conditions | Bliss interaction score
S. aureus DSM 20231 [1], main component drawn | 0.189

CCC[C@@H]1C[C@@H](C(=O)N[C@@H]([C@H]2O[C@H](SC)[C@H](O)[C@@H](O)[C@H]2O)[C@@H](C)O)N(C)C1 [Lincomycin] + Cc1c(Cl)cccc1Nc1ccccc1C(=O)O [Tolfenamic]
Conditions | Bliss interaction score
S. aureus DSM 20231 [1] | -0.244

CCC[C@@H]1C[C@@H](C(=O)N[C@@H]([C@H]2O[C@H](SC)[C@H](O)[C@@H](O)[C@H]2O)[C@H](C)Cl)N(C)C1 [Clindamycin] + CO/N=C(\C(=O)N[C@@H]1C(=O)N2C(C(=O)O)=C(COC(C)=O)CS[C@H]12)c1csc(N)n1 [Cefotaxime]
one replicate
Conditions | fitness
B. subtilis 168, first compound 0.0039 µg/mL, partner 0.0625 µg/mL | 0.681
B. subtilis 168, first compound 0.0039 µg/mL, partner 0.125 µg/mL | 0.531
B. subtilis 168, first compound 0.0039 µg/mL, partner 0.25 µg/mL | 0.442
B. subtilis 168, first compound 0.0078 µg/mL, partner 0.0625 µg/mL | 0.62
B. subtilis 168, first compound 0.0078 µg/mL, partner 0.125 µg/mL | 0.482
B. subtilis 168, first compound 0.0078 µg/mL, partner 0.25 µg/mL | 0.389
B. subtilis 168, first compound 0.0156 µg/mL, partner 0.0625 µg/mL | 0.485
B. subtilis 168, first compound 0.0156 µg/mL, partner 0.125 µg/mL | 0.406
B. subtilis 168, first compound 0.0156 µg/mL, partner 0.25 µg/mL | 0.314
B. subtilis 168, first compound 0.0625 µg/mL, partner 0.00775 µg/mL | 0.473
B. subtilis 168, first compound 0.0625 µg/mL, partner 0.0155 µg/mL | 0.389
B. subtilis 168, first compound 0.0625 µg/mL, partner 0.031 µg/mL | 0.343
B. subtilis 168, first compound 0.125 µg/mL, partner 0.00775 µg/mL | 0.339
B. subtilis 168, first compound 0.125 µg/mL, partner 0.0155 µg/mL | 0.304
B. subtilis 168, first compound 0.125 µg/mL, partner 0.031 µg/mL | 0.3
B. subtilis 168, first compound 0.25 µg/mL, partner 0.00775 µg/mL | 0.33
B. subtilis 168, first compound 0.25 µg/mL, partner 0.0155 µg/mL | 0.254
B. subtilis 168, first compound 0.25 µg/mL, partner 0.031 µg/mL | 0.111
S. aureus Newman, first compound 0.0312 µg/mL, partner 0.039 µg/mL | 0.525
S. aureus Newman, first compound 0.0312 µg/mL, partner 0.312 µg/mL | 0.128
S. aureus Newman, first compound 0.0625 µg/mL, partner 0.039 µg/mL | 0.161
S. aureus Newman, first compound 0.0625 µg/mL, partner 0.312 µg/mL | 0.0773
S. aureus Newman, first compound 0.125 µg/mL, partner 0.039 µg/mL | 0.0501
S. aureus Newman, first compound 0.125 µg/mL, partner 0.312 µg/mL | 0.113

Conditions | fitness
B. subtilis 168, first compound 0.0625 µg/mL, partner 0.5 µg/mL | 0.138
B. subtilis 168, first compound 0.0625 µg/mL, partner 1 µg/mL | 0.0488
B. subtilis 168, first compound 0.0625 µg/mL, partner 2 µg/mL | 0.0865
B. subtilis 168, first compound 0.125 µg/mL, partner 0.5 µg/mL | 0.096
B. subtilis 168, first compound 0.125 µg/mL, partner 1 µg/mL | 0.0462
B. subtilis 168, first compound 0.125 µg/mL, partner 2 µg/mL | 0.0669
B. subtilis 168, first compound 0.25 µg/mL, partner 0.5 µg/mL | 0.0789
B. subtilis 168, first compound 0.25 µg/mL, partner 1 µg/mL | 0.0542
B. subtilis 168, first compound 0.25 µg/mL, partner 2 µg/mL | 0.0739
S. aureus DSM 20231 [2], first compound 0.0625 µg/mL, partner 0.312 µg/mL | 0.11
S. aureus DSM 20231 [2], first compound 0.125 µg/mL, partner 0.039 µg/mL | 0.0991
S. aureus DSM 20231 [2], first compound 0.125 µg/mL, partner 0.078 µg/mL | 0.0447
S. aureus DSM 20231 [2], first compound 0.125 µg/mL, partner 0.156 µg/mL | 0.0526
S. aureus DSM 20231 [2], first compound 0.125 µg/mL, partner 0.312 µg/mL | 0.0465
S. aureus Newman, first compound 0.0312 µg/mL, partner 0.078 µg/mL | 0.437
S. aureus Newman, first compound 0.0312 µg/mL, partner 0.156 µg/mL | 0.351
S. aureus Newman, first compound 0.0312 µg/mL, partner 0.625 µg/mL | 0.055
S. aureus Newman, first compound 0.0312 µg/mL, partner 1.25 µg/mL | 0.036
S. aureus Newman, first compound 0.0312 µg/mL, partner 2.5 µg/mL | 0.0433
S. aureus Newman, first compound 0.0625 µg/mL, partner 0.078 µg/mL | 0.223
S. aureus Newman, first compound 0.0625 µg/mL, partner 0.156 µg/mL | 0.114
S. aureus Newman, first compound 0.0625 µg/mL, partner 0.625 µg/mL | 0.0368
S. aureus Newman, first compound 0.0625 µg/mL, partner 1.25 µg/mL | 0.0614
S. aureus Newman, first compound 0.0625 µg/mL, partner 2.5 µg/mL | 0.0509
S. aureus Newman, first compound 0.125 µg/mL, partner 0.078 µg/mL | 0.0724
S. aureus Newman, first compound 0.125 µg/mL, partner 0.156 µg/mL | 0.0344
S. aureus Newman, first compound 0.125 µg/mL, partner 0.625 µg/mL | 0.0721
S. aureus Newman, first compound 0.125 µg/mL, partner 1.25 µg/mL | 0.0661
S. aureus Newman, first compound 0.125 µg/mL, partner 2.5 µg/mL | 0.0579
S. pneumoniae D39V, first compound 0.0125 µg/mL, partner 0.0018 µg/mL | 0.792
S. pneumoniae D39V, first compound 0.0125 µg/mL, partner 0.0035 µg/mL | 0.812
S. pneumoniae D39V, first compound 0.0125 µg/mL, partner 0.007 µg/mL | 0.763
S. pneumoniae D39V, first compound 0.015 µg/mL, partner 0.0018 µg/mL | 0.889
S. pneumoniae D39V, first compound 0.015 µg/mL, partner 0.0035 µg/mL | 0.908
S. pneumoniae D39V, first compound 0.015 µg/mL, partner 0.007 µg/mL | 0.803
S. pneumoniae D39V, first compound 0.025 µg/mL, partner 0.0018 µg/mL | 0.573
S. pneumoniae D39V, first compound 0.025 µg/mL, partner 0.0035 µg/mL | 0.549
S. pneumoniae D39V, first compound 0.025 µg/mL, partner 0.007 µg/mL | 0.503
S. pneumoniae D39V, first compound 0.03 µg/mL, partner 0.0018 µg/mL | 0.709
S. pneumoniae D39V, first compound 0.03 µg/mL, partner 0.0035 µg/mL | 0.666
S. pneumoniae D39V, first compound 0.03 µg/mL, partner 0.007 µg/mL | 0.569
S. pneumoniae D39V, first compound 0.05 µg/mL, partner 0.0018 µg/mL | 0.256
S. pneumoniae D39V, first compound 0.05 µg/mL, partner 0.0035 µg/mL | 0.253
S. pneumoniae D39V, first compound 0.05 µg/mL, partner 0.007 µg/mL | 0.184
S. pneumoniae D39V, first compound 0.06 µg/mL, partner 0.0018 µg/mL | 0.374
S. pneumoniae D39V, first compound 0.06 µg/mL, partner 0.0035 µg/mL | 0.354
S. pneumoniae D39V, first compound 0.06 µg/mL, partner 0.007 µg/mL | 0.288

Source: the supplement of paper PMC10627819
